Measured values: paper PMC8615109, “Assessment of Micafungin Dosage Regimens in Patients with Cancer Using Pharmacokinetic/Pharmacodynamic Modeling and Monte Carlo Simulation” (Antibiotics, 2021)
Numbered stars: 1 amine (or outer) side, 2 acyl side, 3 side chain; on linkers, the order of the positions; unused ones are H or OH. Bridge positions count the residues as written; N and C are the ends. Square brackets hold non-standard residues; d marks the D form. Peptide text beside a SMILES is read from it. * marks the point of attachment. hTyr(3S-OH,4S-OH,3'-OSO3H) = N[C@H](C(=O)O)[C@H](O)[C@@H](O)c1ccc(O)c(OS(=O)(=O)O)c1; Orn(4R-OH,5R-OH) = O=C([C@H](C[C@@H](O)[C@@H](O)N[*:3])N[*:1])[*:2]; Pro(3S-OH,4S-Me) = C[C@H]1CN[C@H](C(=O)O)[C@H]1O; X1 = CCCCCOc1ccc(-c2cc(-c3ccc(C(=O)*)cc3)no2)cc1; Gln(3R-OH) = NC(=O)C[C@@H](O)[C@H](N)C(=O)O; Hyp = O=C(O)[C@@H]1C[C@@H](O)CN1

Legend:
clinical = assay type: in vivo, human (adult patients); conditions: population estimate; for clearance: both sexes, human, in vivo, iv, two-compartment population model (Monolix 4.4), plasma HPLC-UV
Protocol: This was a prospective pharmacokinetic study to compare adult patients with and without cancer. The study was conducted at King Saud University Medical City, a tertiary hospital. The study included male and female patients aged ≥ 18 years, who were admitted to the hospital and received a minimum of 2 micafungin doses based on empirical evidence or culture results. Patients who were pregnant and those with a micafungin allergy were excluded. The study protocol was approved by the Institutional Review Board of King Saud University Medical City (E-18-3373), and written informed consent was obtained from all patients before their inclusion in the study.
All patients were treated with a 100–150 mg daily dose of micafungin for empirical use or confirmed fungal infection. Micafungin was diluted in 100 mL isotonic saline solution and infused over 60 min. Blood samples were drawn at 1, 2, 4, 6, 8, 12, and 24 h from the initiation of the micafungin dose. All blood samples were centrifuged, and plasma samples were stored at −80 °C until analysis.
Plasma micafungin concentrations were determined using a high-performance liquid chromatography (HPLC) method with a UV detection system, with slight modification. Plasma samples were separated from whole blood, acidified with phosphoric acid, precipitated with acetonitrile, and centrifuged prior to dilution with buffer and injection into an HPLC system. Anidulafungin served as I.S. for micafungin. The method was fully validated and achieved using an isocratic Prominence Shimadzu HPLC system (Shimadzu, Columbia, MD, USA), which comprised an autosampler (SIL-20AHT), a UV detector (Shimadzu UV SPD-20A), and a pump (LC-20AB) connected to a degasser (Dgu-20A3). The separation of micafungin was performed on a Phenomenex Luna C18 column (250 × 4.6 mm i.d., 5 µm; Phenomenex, CA). The mobile phase comprised 0.1% (w/w) ammonium acetate in water, with pH adjusted to 7.0 with 25% NH3 solution and acetonitrile (70%:30%); the flow rate was 1 mL/min, and micafungin was detected at 273 nm. Data acquisition was achieved using LC Solution chromatographic software version 1.22 SP1 (Shimadzu, Columbia, MD, USA).
Data from patients with and without cancer were comodeled using Monolix 4.4 software (Supplementary File S1). Monolix estimates pharmacokinetic parameters using the stochastic approximation expectation maximization algorithm. In the first step, we developed the base structural model for micafungin by fitting various compartmental models to plasma drug concentrations. The following criteria were followed to select between models: (a) a decrease in the minimum of the objective function value (log-likelihood value); (b) precision of the parameter estimation expressed as RSE (%) and calculated as the ratio between the standard error and final parameter estimate; (c) physiologic plausibility; and (d) GOF plots including observed and predicted concentrations, residuals plot, and visual predictive check.
A covariate model was developed in a stepwise fashion, with forward inclusion based on model selection criteria. First, we plotted the empirical Bayesian estimates vs. covariates to screen for potentially significant correlations. Next, we performed a stepwise regression analysis to test the significant covariates identified in step 1, using the −2 log-likelihood ratio test. Age, body weight, height, BMI, sex, serum creatinine, creatinine clearance, sequential organ failure assessment score, and levels of AST, alanine transaminase, total bilirubin, and albumin were tested as covariates.
GOF was assessed using the log-likelihood criterion during model building. Plots of model-based individual and population predictions vs. the observed concentrations were performed for model assessment. A predicted–corrected visual predictive check using 1000 simulations was constructed to study the performance of the final model. […]

[1] = cited from earlier work
Source text: Micafungin is metabolized in the liver by catechol O-methyltransferase, arylsulfatase, and hydroxylation. Only 1% of the unchanged drug is excreted through the kidneys. […] The elimination pharmacokinetics of micafungin in patients with advanced hepatic insufficiency are not fully understood. […] We described the plasma concentration-time curve of micafungin using a two-compartment model, similar to that described in previous studies. […] Overall, there were no differences in the ...

[2] = patients with cancer (n = 10), 100 mg/day i.v.
[3] = patients without cancer (n = 9), 100-150 mg/day i.v.

Q: Which results are given for CCCCCOc1ccc(-c2cc(-c3ccc(C(=O)N[C@H]4C[C@@H](O)[C@@H](O)NC(=O)[C@@H]5[C@@H](O)[C@@H](C)CN5C(=O)[C@H]([C@H](O)CC(N)=O)NC(=O)[C@H]([C@H](O)[C@@H](O)c5ccc(O)c(OS(=O)(=O)O)c5)NC(=O)[C@@H]5C[C@@H](O)CN5C(=O)[C@H]([C@@H](C)O)NC4=O)cc3)no2)cc1 [micafungin] (X1-[Orn(4R-OH,5R-OH)]T[Hyp][hTyr(3S-OH,4S-OH,3'-OSO3H)][Gln(3R-OH)][Pro(3S-OH,4S-Me)]; lactam 1-C)?
A: clearance (clinical; patients with cancer (n = 10), 100 mg/day i.v. infusion over 60 min): 20 mL/min; clearance (clinical; patients without cancer (n = 9), 100-150 mg/day i.v. infusion over 60 min): 10 mL/min; Q (intercompartmental clearance) (clinical; [2]): 0.144 L/h; V1 (volume of the central compartment) (clinical; [2]): 10.7 L; V2 (volume of the peripheral compartment) (clinical; [2]): 3.5 L; Q (intercompartmental clearance) (clinical; [3]): 0.188 L/h; V1 (volume of the central compartment) (clinical; [3]): 12 L; V2 (volume of the peripheral compartment) (clinical; [3]): 2.77 L; terminal half-life ([1]; adults): approximately 15 h; unchanged drug excreted through the kidneys [1]: 1%
